Measurements reported in patent publication US20230140290A1, “SALICYLAMIDE DERIVATIVES AND RELATED METHODS OF MAKING” (THE BOARD OF REGENTS OF THE UNIVERSITY OF TEXAS SY, priority 2020, published 2023).

Tests used:
Type in all cases: cell-based, HAdV-5
[1] = tested on: HAdV5-GFP; assay: Entry assay (HAdV5-mediated GFP expression); conditions: for inhibition at 50 µM: read-out: (%) Inhibition Entry Assay (50 μM)
Summary of the method: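 Human A549 cells (3×10^5/well) infected with HAdV5-GFP at 2000 vp/cell with compounds at 50 μM or in dose-response, in triplicate. Incubation 48 h at 37° C., 5% CO2. Standard infection curve from 2-fold virus dilutions without compound run in parallel.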

[2] = tested on: wild-type HAdV5; assay: HAdV DNA quantification by real-time PCR (DNA replication); conditions: 24 h
Experimental: DNA Quantification by Real-Time PCR. […] Infected cells were incubated 24 h at 37° C. in 500 μL of complete DMEM containing 25 μM of either compounds or the same volume of DMSO (positive control). All samples were done in duplicate. After 24 h of incubation at 37° C., DNA was purified from the cell lysate with the QIAamp DNA Mini Kit (QIAGEN, Valencia, Calif.) following the manufacturer's instructions. TaqMan primers and probes for a common region of the HAdV5 were designed with the GenScript Real-Time PCR (TaqMan) Primer Design software (GenScript). […] Real-time PCR mixtures consisted of 9.5 μL of the purified DNA, AQ1 and AQ2 at a concentration of 200 nM each and Probe at a concentration of 50 nM in a total volume of 25 μL. The PCR cycling protocol was 95° C. for 3 min followed by 40 cycles of 95° C. for 10 s and 60° C. for 30 s. Human glyceraldehyde-3-phosphate dehydrogenase (GAPDH) gene was used as internal control. Oligonucleotides sequences for GAPDH and conditions were those previously reported by Henke-Gendo et al. (2012).
For quantification, gene fragments from hexon, and GAPDH were cloned into the pGEM-T Easy vector (Promega) and known concentrations of template were used to generate a standard curve in parallel for each experiment. All assays were performed in thermal cycler LightCycler® 96 System (Roche).
(§1) HAdV DNA Quantification by Real-Time PCR. […] All samples were done in duplicate. After 24 h of incubation at 37° C., DNA was purified from the cell lysate with the E.Z.N.A.® Tissue DNA Kit (Omega Bio-tek, Norcross, Ga.) following the manufacturer's instructions. TaqMan primers and probes for a common region of the HAdV5 were designed with the GenScript Real-Time PCR (TaqMan) Primer Design software (GenScript). […] Real-time PCR mixtures consisted of 9.5 μL of the purified DNA, AQ1 and AQ2 at a concentration of 200 nM each and Probe at a concentration of 50 nM in a total volume of 25 μL. The PCR cycling protocol was 95° C. for 3 min followed by 40 cycles of 95° C. for 10 s and 60° C. for 30 s. Human glyceraldehyde-3-phosphate dehydrogenase (GAPDH) gene was used as internal control. Oligonucleotides sequences for GAPDH and conditions were those previously reported by Henke-Gendo et al. (2012).
as §1, with “DNA” for “HAdV DNA”

[3] = tested on: HAdV5-GFP; assay: Plaque assay (inhibition of HAdV plaque formation); conditions: for Selectivity index (SI): ratio of CC50 to IC50 in plaque assay; for inhibition at 10 µM: read-out: Plaque Assay (%) Inhibition (10 μM); for IC50: read-out: Plaque Assay IC50 (μM), HAdV5-GFP, low MOI, 293β5 cell line
Summary of the method: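 Cells at 80-90% confluency infected with HAdV5-GFP at 0.06 vp/cell, rocked 2 h at 37° C, then washed with PBS. Compounds tested at 10 μM and in dose-response from 10 to 0.3 μM, included in the post-infection mixture.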

[4] = tested on: wild-type HAdV5; assay: Nuclear-associated HAdV genomes (real-time PCR)
[5] = A549, read-out: IC50 Entry Assay (μM), HAdV5-GFP, high MOI, A549 cell line
[6] = FIG. 4, concentrations by CC50 (2-50 μM)
[7] = FIG. 3, 45 min post infection, concentrations by CC50 (2-50 μM)

Compound	inhibition at 50 µM ([1]; A549, 48 h)	IC50 [1, 5]	inhibition of HAdV-5 DNA replication (qPCR) [2, 6]	Selectivity index (SI) [3]	inhibition at 10 µM [3]	IC50 [3]	amount of nuclear-associated HAdV genomes versus DMSO [4, 7]	EC50 ([1]; A549, 48 h, read-out: EC50 (entry assay, as worded in text))	inhibition at 7.8 µM ([2]; read-out: inhibition of HAdV-5 DNA replication (qPCR))	EC50 ([3]; read-out: EC50 (plaque assay))	inhibition of accessibility of HAdV DNA to the nucleus ([4]; FIG. 5B, 45 min post-infection, 10-fold plaque IC50)	IC50 ([1]; {})	inhibition of HAdV-5 DNA replication (qPCR) ([2]; FIG. 6A, 10-fold plaque IC50)	amount of nuclear-associated HAdV genomes versus DMSO ([4]; FIG. 5A, 45 min post-infection, 10-fold plaque IC50)
O=C(N[C@H](Cc1ccccc1)C(=O)Nc1ccc([N+](=O)[O-])cc1Cl)c1cc(Cl)ccc1O [Compound 60, (R)-5-Chloro-N-(1-((2-chloro-4-nitrophenyl)amino)-1-oxo-3-phenylpropan-2-yl)-2-hydroxybenzamide]	68.6%	9.7 µM	significant (p≤0.0001) inhibitory activity	259.7	100%	0.3 µM	partially inhibited	–	–	–	–	–	–	–
O=C(NCC1CCCCC1)c1cc(Cl)ccc1O [Compound 161, 5-Chloro-N-(cyclohexylmethyl)-2-hydroxybenzamide]	98.6 ± 14.8%	12.3 ± 4.8 µM	–	> 100	100%	–	–	12.3 µM	50%	0.78 µM	more than 99%	–	–	–
CC1(Nc2ccc(NC(=O)c3cc(Cl)ccc3O)c(Cl)c2)CCCC1 [Compound 87, 5-Chloro-N-(2-chloro-4-((1-methylcyclopentyl)amino)phenyl)-2-hydroxybenzamide]	85.4%	15.2 to 30.8 µM	–	580.7	100%	0.27 µM	–	–	–	–	–	15.2 ± 5.1 µM	moderate inhibition	partially inhibited
O=C(Nc1cc(F)cc(C(F)(F)F)c1)c1cc(Cl)ccc1O [Compound 17, 5-Chloro-N-(3-fluoro-5-(trifluoromethyl)phenyl)-2-hydroxybenzamide]	100%	2.23 ± 0.58 µM	low inhibition	666.7	100%	–	no significant differences	–	–	–	–	–	–	–
O=C(Nc1ccc([N+](=O)[O-])cc1F)c1cc(Cl)ccc1O [Compound 11, 5-Chloro-N-(2-fluoro-4-nitrophenyl)-2-hydroxybenzamide]	92.4 ± 0.2%	1.57 ± 0.97 µM	low inhibition	218.2	98.7 ± 1.9%	0.05 µM	partially inhibited	–	–	–	–	–	–	–
CC(C)[C@H](NC(=O)c1cc(Cl)ccc1O)C(=O)Nc1ccc([N+](=O)[O-])cc1Cl [Compound 58, (S)-5-Chloro-N-(1-((2-chloro-4-nitrophenyl)amino)-3-methyl-1-oxobutan-2-yl)-2-hydroxybenzamide]	81.8%	11.2 µM	low inhibition	444.4	100%	–	no significant differences	–	–	–	–	–	–	–
